Patent US5545736A, “6-thiono-5,6-dihydro-dibenz[B,E] azepin-11-one-11-oximes” (Bayer Aktiengesellschaft, priority 1991, dated 1996)
Where two headings read alike, the source gives them in different places.

Test system: HIV
Assay: HIV infection in cell culture (syncytia formation; PBLs or H9 cells)
Assay type: cell-based
Conditions: read-out: IC50 (concentration at which 50% of the virus-induced syncytia were suppressed)
Procedure: The HIV test was carried out with slight modifications according to the method of Pauwels et al. [cf. Journal of Virological Methods 20, (1988), 309-321].
Normal human blood lymphocytes (PBLs) were concentrated by means of Ficoll-Hypaque and stimulated with phytohaemagglutinin (90 μg/ml) and interleukin-2 (40 U/ml) in RPMI 1640 and 20% foetal calf serum. For infection with the infectious HIV, PBLs were pelleted and the cell pellet was then suspended in 1 ml of HIV virus adsorption solution and incubated for 1 hour at 37° C.
Alternatively, HIV-susceptible H9 cells were employed instead of normal human blood lymphocytes for testing the antiviral effects of the compounds according to the invention.
The virus adsorption solution was centrifuged and the infected cell pellet was taken up in growth medium so that a concentration of 1×10^5 cells per ml was established. The cells infected in this way were pipetted into the wells of 96-well microtiter plates to give 1×10^4 cells/well.
The first vertical row of the microtiter plate contained only growth medium and cells which had not been infected, but otherwise treated exactly as described above (cell control). The second vertical row of the microtiter plate contained only HIV-infected cells (virus control) in growth medium. The other wells contained the compounds according to the invention in differing concentrations, starting from the wells of the 3rd vertical row of the microtiter plate, from which the test substances were diluted 2^10 times in 2-fold steps.
The test batches were incubated at 37° C. until, in the untreated virus control, the syncytia formation typical of HIV occurred (between day 3 and 6 after infection), which was then microscopically assessed. Under these test conditions, in the untreated virus control about 20-50 syncytia resulted, while the untreated cell control contained no syncytia.
The IC50 values were determined as the concentration of the treated and infected cells at which 50% (about 10-20 syncytia) of the virus-induced syncytia were suppressed by treatment with the compound according to the invention.

[1] = Human immunodeficiency virus 1, 72 h, HIV-infected PBLs or alternatively H9 cells, 37° C., read between day 3 and 6 after infection

IC50 [1] [µM] | Structure (SMILES) | IC50 (Human immunodeficiency virus 1, H9, 72 h) [µM]
– | Cc1ccnc2c1NC(=O)c1cccnc1N2C1CC1 [BIRG 587, reference compound] | 0.09
1.5 | CN(C)CCON=c1c2cc(Cl)ccc2[nH]c(=S)c2ccccc12 [Example 2] | –
0.38 | S=c1[nH]c2ccc(Cl)cc2c(=NOCCN2CCOCC2)c2ccccc12 [Example 3] | –
0.38 | CON=c1c2cc(Cl)ccc2[nH]c(=S)c2ccccc12 [Example 4] | –
